For 1 molecule, Appearance after dissolution results are on record in patent US20170360664A1, “PERSONAL CARE COMPOSITIONS” (Colgate-Palmolive Company, priority 2015, published 2017).

The nature of the series: Clarity, pH and aging stability of aqueous SnF2/STPP solutions. In kind it is physicochemical. The conditions noted are these: 2% stannous fluoride solution without STPP.

Protocol: The solutions are then further mixed at room temperature until a clear solution forms. All of the solutions contain 2% SnF2.
The solutions with a P:Sn molar ratio spanning from 1 to 15 containing 2% SnF2 are aged overnight at room temperature.
A different set of solutions with a P:Sn molar ratio of 2 and 5 are placed in a 50° C. oven for eight weeks.

In the case of `[F][Sn][F]` [stannous fluoride], the Appearance after dissolution entry is “precipitate almost immediately after dissolution”.
